These results are taken from ChEMBL document CHEMBL4387740, “Discovery of ABT-957: 1-Benzyl-5-oxopyrrolidine-2-carboxamides as selective calpain inhibitors with enhanced metabolic stability” (Bioorg Med Chem Lett, 2019).

The species entered for data set [1] is Homo sapiens. Description: Selectivity ratio, ratio of Ki for CatL (unknown origin) to Ki for Cal1 (unknown origin).
Data set [2] is filed under the species Homo sapiens. Nature of the data set: Selectivity ratio, ratio of Ki for CatK (unknown origin) to Ki for Cal1 (unknown origin).
Data set [3] in a line: Intrinsic clearance in human liver cytosol. In kind it is ADME, subcellular. The settings on record: read-out: CLH.
A short description of data set [4]: Intrinsic clearance in human liver microsomes. Type of data set: ADME, Microsome. To be noted: read-out: CLH. A general note: Microsomes from liver hold many membrane-bound enzymes, among them those of drug oxidation.
Data set [5] has as its target T1, Calpain-1 catalytic subunit (Homo sapiens, UniProt P07384).
T1 sequence (P07384 whole entry): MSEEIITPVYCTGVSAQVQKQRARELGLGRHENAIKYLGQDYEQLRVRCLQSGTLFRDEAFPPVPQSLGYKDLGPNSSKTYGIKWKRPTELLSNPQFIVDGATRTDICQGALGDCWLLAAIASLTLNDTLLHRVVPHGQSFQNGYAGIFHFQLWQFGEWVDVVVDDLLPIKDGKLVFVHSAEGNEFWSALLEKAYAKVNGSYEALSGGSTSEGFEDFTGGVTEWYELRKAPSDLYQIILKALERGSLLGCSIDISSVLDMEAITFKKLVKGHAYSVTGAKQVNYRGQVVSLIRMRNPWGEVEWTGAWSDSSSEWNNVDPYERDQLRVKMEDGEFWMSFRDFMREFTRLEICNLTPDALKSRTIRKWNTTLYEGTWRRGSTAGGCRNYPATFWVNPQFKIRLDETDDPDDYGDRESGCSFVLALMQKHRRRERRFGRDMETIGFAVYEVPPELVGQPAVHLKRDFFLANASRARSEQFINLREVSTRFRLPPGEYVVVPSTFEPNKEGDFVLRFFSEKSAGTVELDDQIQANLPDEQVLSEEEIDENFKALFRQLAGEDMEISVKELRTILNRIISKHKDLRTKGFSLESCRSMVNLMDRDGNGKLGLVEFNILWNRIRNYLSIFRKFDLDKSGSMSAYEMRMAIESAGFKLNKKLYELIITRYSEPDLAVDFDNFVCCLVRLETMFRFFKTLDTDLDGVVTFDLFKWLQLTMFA
Description: Inhibition of Cal1 (unknown origin).

For data set [6], the species on record is Homo sapiens. Description: Selectivity ratio, ratio of Ki for CatB (unknown origin) to Ki for Cal1 (unknown origin).
Data set [7] in a line: Selectivity ratio, ratio of Ki for CatS (unknown origin) to Ki for Cal1 (unknown origin). The settings on record: Homo sapiens.
A short description of data set [8]: Intrinsic clearance in rat liver microsomes. The settings on record: read-out: CLH. Type of data set: ADME, Microsome.

SMILES strings stand for the structures.

For `O=C(NCc1ccc(F)cc1)C(=O)C(Cc1ccccc1)NC(=O)[C@H]1CCC(=O)N1Cc1ccccc1` (stereo partly specified), the Selectivity ratio stood at 34 in the data set filed under Homo sapiens [1], 70 in the data set filed under Homo sapiens [2], 104 in the data set listed under Homo sapiens [6] and 286 in data set [7]. Besides, the microsomal CLint is 3 µL/min/mg in data set [3], greater than 70 µL/min/mg in data set [4] and greater than 100 µL/min/mg in data set [8]. Besides, the Ki (commonly the dissociation constant of the complex between target and ligand, obtained from inhibition or displacement) in data set [5] stood at 48 nM.

For the compound `CCNC(=O)C(=O)C(Cc1ccccc1)NC(=O)[C@H]1CCC(=O)N1Cc1ccccc1` (mixture of isomers), the Selectivity ratio in the data set filed under Homo sapiens [1] came out at 44; in the data set listed under Homo sapiens [2], 85; in the data set listed under Homo sapiens [6], 55; in data set [7] it was 60. For the same compound, the microsomal CLint in data set [3] is 4 µL/min/mg; in data set [4] it was less than 23 µL/min/mg; in data set [8], less than 23 µL/min/mg. In data set [5], this compound gave a Ki of 165 nM.
